Test results published in ChEMBL document CHEMBL1201862, “PubChem BioAssay data set” (2004).
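Following 48 hours of exposure in 96-well plates, responses at five concentrations were used to interpolate endpoints linearly. At the GI50, growth is halved.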 Calls of active or inactive are those of the source. Rule as the data show it: active = GI50 up to about 1.1 µM and inactive = higher.

Key:
Experiment in all cases: growth of human tumour cells (NCI), 48 h
786-0 = system: 786-0
NCI-H460 = system: NCI-H460
OVCAR-8 = system: OVCAR-8
SK-OV-3 = system: SK-OV-3
U-251 = system: U-251
EKVX = system: EKVX
K562 = system: K562
A549 = system: A549
IGROV-1 = system: IGROV-1
SNB-19 = system: SNB-19
MOLT-4 = system: MOLT-4
SW-620 = system: SW-620
SN12C = system: SN12C
Malme-3M = system: Malme-3M
M14 = system: M14
KM12 = system: KM12
SNB-75 = system: SNB-75

Measured: GI50

Cc1nc2ccccc2c(=O)n1/N=C(\N=N\c1ccc(Cl)cc1)c1ccc(N(C)C)cc1
inactive: 786-0 > 100 µM | NCI-H460 93.8 µM | OVCAR-8 > 100 µM | SK-OV-3 > 100 µM | U-251 > 10 µM | EKVX > 100 µM | K562 36.6 µM | A549 > 100 µM | IGROV-1 > 100 µM | SNB-19 48 µM | MOLT-4 61.1 µM | SW-620 > 100 µM | SN12C 56.9 µM

O=C(Cn1ccnc1[N+](=O)[O-])NCc1ccc(F)cc1
inactive: 786-0 > 100 µM | NCI-H460 > 100 µM | OVCAR-8 > 100 µM | Malme-3M > 100 µM | SK-OV-3 > 100 µM | M14 > 100 µM | U-251 > 100 µM | EKVX > 100 µM | K562 > 100 µM | A549 > 100 µM | IGROV-1 > 100 µM | KM12 > 100 µM | SNB-19 > 100 µM | MOLT-4 > 100 µM | SNB-75 68.9 µM | SW-620 > 100 µM | SN12C > 100 µM

Cn1c2c(c3ccccc31)C1CCCCC1C1C(=O)NC(=O)C21 (configuration not stated)
inactive: 786-0 65 µM | NCI-H460 34.8 µM | OVCAR-8 66.2 µM | Malme-3M 32.1 µM | SK-OV-3 > 100 µM | M14 57.9 µM | U-251 > 100 µM | EKVX 32.8 µM | K562 40.6 µM | A549 43.3 µM | IGROV-1 > 100 µM | KM12 54.3 µM | SNB-19 > 100 µM | MOLT-4 21.8 µM | SNB-75 33.1 µM | SW-620 52 µM | SN12C 33.2 µM

C1CN2CCN3CCN4CCN1[PH]243
inactive: 786-0 > 100 µM | NCI-H460 > 100 µM | OVCAR-8 > 100 µM | Malme-3M > 100 µM | SK-OV-3 > 100 µM | M14 > 100 µM | U-251 > 100 µM | EKVX > 100 µM | K562 > 100 µM | A549 > 100 µM | IGROV-1 > 100 µM | KM12 > 100 µM | SNB-19 > 100 µM | MOLT-4 > 100 µM | SNB-75 > 100 µM | SW-620 > 100 µM | SN12C > 100 µM

Cc1cc2c(cc1C)[n+]([O-])c(C(=O)CC(=O)C(=O)Nc1c(C(C)C)cccc1C(C)C)c(C)[n+]2[O-]
inactive: 786-0 > 100 µM | NCI-H460 > 100 µM | OVCAR-8 > 100 µM | Malme-3M > 100 µM | SK-OV-3 > 100 µM | M14 > 100 µM | U-251 > 100 µM | EKVX > 100 µM | K562 > 100 µM | A549 > 100 µM | IGROV-1 > 100 µM | KM12 > 100 µM | SNB-19 > 100 µM | MOLT-4 > 100 µM | SNB-75 > 100 µM | SW-620 > 100 µM | SN12C > 100 µM

O=C1OCCC1(Cc1ccc(Cl)cc1)Cc1ccc(Cl)cc1
inactive: 786-0 64.6 µM | NCI-H460 > 100 µM | OVCAR-8 64.6 µM | Malme-3M > 100 µM | SK-OV-3 > 100 µM | M14 > 100 µM | U-251 52.1 µM | EKVX > 100 µM | K562 > 100 µM | A549 > 100 µM | IGROV-1 > 100 µM | KM12 > 100 µM | SNB-19 30 µM | MOLT-4 > 100 µM | SNB-75 21.6 µM | SW-620 > 100 µM | SN12C > 100 µM

COCOCCC#CCO
inactive: 786-0 > 100 µM | NCI-H460 > 100 µM | OVCAR-8 > 100 µM | Malme-3M > 100 µM | SK-OV-3 > 100 µM | M14 > 100 µM | U-251 > 100 µM | EKVX > 100 µM | K562 > 100 µM | A549 > 100 µM | IGROV-1 > 100 µM | KM12 > 100 µM | SNB-19 > 100 µM | MOLT-4 > 100 µM | SNB-75 > 100 µM | SW-620 > 100 µM | SN12C > 100 µM

CCOC(=O)COS(=O)(=O)C(F)(F)F
inactive: 786-0 35.4 µM | NCI-H460 41.9 µM | OVCAR-8 > 100 µM | Malme-3M > 100 µM | SK-OV-3 > 100 µM | M14 > 100 µM | U-251 > 100 µM | EKVX > 100 µM | K562 > 100 µM | A549 > 100 µM | IGROV-1 > 100 µM | KM12 > 100 µM | SNB-19 > 100 µM | MOLT-4 > 100 µM | SNB-75 > 100 µM | SN12C > 100 µM

Clc1ccc(CCN2CCOCC2)c(Cl)c1
inactive: 786-0 > 100 µM | NCI-H460 > 100 µM | OVCAR-8 > 100 µM | Malme-3M > 100 µM | SK-OV-3 > 100 µM | M14 > 100 µM | U-251 > 100 µM | EKVX > 100 µM | K562 > 100 µM | A549 > 100 µM | IGROV-1 > 100 µM | KM12 > 100 µM | SNB-19 > 100 µM | MOLT-4 > 100 µM | SNB-75 17.6 µM | SN12C > 100 µM

Nc1c(C(=O)Nc2ccccc2)[n+]([O-])c2ccccc2[n+]1[O-]
inactive: 786-0 13.6 µM | NCI-H460 14.9 µM | OVCAR-8 36.8 µM | Malme-3M > 10 µM | SK-OV-3 > 100 µM | M14 15.6 µM | U-251 12.9 µM | EKVX 25.9 µM | K562 17.1 µM | A549 25.1 µM | IGROV-1 18.4 µM | KM12 14.2 µM | SNB-19 15.5 µM | MOLT-4 18.7 µM | SNB-75 13 µM | SW-620 15.2 µM | SN12C 14.8 µM

COC(=O)C12C(=O)O[C@H](C)C1(O)C(C)C(=O)N2C (some centres not stated)
inactive: 786-0 > 100 µM | OVCAR-8 > 100 µM | Malme-3M > 100 µM | SK-OV-3 > 100 µM | M14 > 100 µM | U-251 > 100 µM | EKVX > 100 µM | K562 > 100 µM | IGROV-1 > 100 µM | KM12 > 100 µM | SNB-19 > 100 µM | MOLT-4 > 100 µM

C=C(CO)CC(/C=C(\C)CC/C=C(\C)CCl)OC(C)=O (configuration not stated)
inactive: 786-0 > 100 µM | NCI-H460 > 100 µM | OVCAR-8 > 100 µM | SK-OV-3 > 100 µM | M14 > 100 µM | U-251 > 100 µM | EKVX > 100 µM | K562 > 100 µM | A549 > 100 µM | IGROV-1 > 100 µM | KM12 > 100 µM | SNB-19 > 100 µM | MOLT-4 > 100 µM | SNB-75 > 100 µM | SW-620 > 100 µM | SN12C > 100 µM

OC12c3ccccc3C1CCCCC2N1CCCC1 (configuration not stated)
inactive: 786-0 > 100 µM | NCI-H460 > 100 µM | OVCAR-8 > 100 µM | Malme-3M > 100 µM | SK-OV-3 > 100 µM | M14 > 100 µM | U-251 > 100 µM | EKVX > 100 µM | K562 > 10 µM | A549 > 100 µM | KM12 > 100 µM | SNB-19 > 100 µM | MOLT-4 > 100 µM | SNB-75 > 100 µM | SW-620 > 100 µM | SN12C > 100 µM

O=C(Cc1ccccc1)N/N=C(/c1nc2ccc([N+](=O)[O-])cc2nc1O)C(O)c1ccco1 (configuration not stated)
inactive: 786-0 > 100 µM | NCI-H460 > 100 µM | OVCAR-8 > 100 µM | Malme-3M > 100 µM | SK-OV-3 > 100 µM | M14 > 100 µM | U-251 > 100 µM | EKVX > 100 µM | K562 44.4 µM | A549 > 100 µM | IGROV-1 > 100 µM | KM12 > 100 µM | MOLT-4 > 100 µM | SNB-75 > 100 µM | SW-620 > 100 µM | SN12C > 100 µM

CN(C)CCCNC(=O)c1cccc2nc3ccccc3nc12
inactive: 786-0 51.1 µM | OVCAR-8 12.6 µM | Malme-3M 4.42 µM | SK-OV-3 > 52.1 µM | M14 22 µM | U-251 19.1 µM | EKVX 27.3 µM | K562 7.46 µM | A549 12.2 µM | IGROV-1 34.2 µM | KM12 13.5 µM | SNB-19 19.8 µM | MOLT-4 9.77 µM | SNB-75 35.8 µM | SW-620 8.13 µM | SN12C 23.2 µM

Cc1ccc(NC(=O)CC/C(CC(=O)C(C)(C)C)=N/NC(=O)C[N+](C)(C)C)cc1C
inactive: 786-0 18.2 µM | NCI-H460 > 100 µM | OVCAR-8 > 100 µM | Malme-3M > 100 µM | SK-OV-3 > 100 µM | M14 > 100 µM | U-251 > 100 µM | EKVX > 100 µM | K562 > 100 µM | A549 21.7 µM | IGROV-1 > 100 µM | KM12 > 100 µM | SNB-19 > 100 µM | MOLT-4 > 100 µM | SW-620 > 100 µM | SN12C > 100 µM

CC1=C(C(=O)CC(=O)C(=O)Nc2ccccc2)Sc2ccccc2N1
inactive: 786-0 > 100 µM | NCI-H460 > 100 µM | OVCAR-8 > 100 µM | Malme-3M > 100 µM | SK-OV-3 > 100 µM | M14 > 100 µM | U-251 > 100 µM | EKVX > 100 µM | K562 > 100 µM | A549 > 100 µM | IGROV-1 > 100 µM | KM12 > 100 µM | SNB-19 > 100 µM | MOLT-4 > 100 µM | SW-620 > 100 µM | SN12C > 100 µM
